Data reported in US20100204295A1, “TREATMENT OF ALLERGIC DISEASE WITH IMMUNOMODULATOR COMPOUNDS” (SCICLONE PHARMACEUTICALS, INC., priority 2007, published 2010).

What was measured:
[1] = system: experimental allergic asthma (BAL cells); assay: Cytological composition of bronchoalveolar lavage in allergic ovalbumin asthma model; type: in vivo, mice of the Balb/C line; conditions: for Total cellularity of the BAL: animals 6-8 weeks, mean±SD; for Eosinophils, % of BAL cells / Lymphocytes, % of BAL cells / Monocytes/Macrophages, % of BAL cells / Neutrophils, % of BAL cells: animals 6 to 8 weeks; for Eosinophils in BAL, thousand / Lymphocytes in BAL, thousand / Monocytes/Macrophages in BAL, thousand / Neutrophils in BAL, thousand / Total number of cells in the lavages: animals 18 to 20 weeks
Excerpt: Female, non-pathogenic mice of the Balb/C line (“Pushchtino” laboratory animal breeders) were kept under conditions of an SPF-vivarium at a constant temperature, 12-hour day/night cycle, and received sterile feed and water ad libitum. In two series of experiments, mice from 6-8 weeks and 18-20 weeks of age were used at the beginning of the experiment, respectively.
The animals were immunized twice at 5-day intervals with an ovalbumin solution (Sigma) in an adjuvant based on ammonium sulfate at a dosage of 8 μg per mouse. SCV-07 was administered intra-abdominally in a volume of 200 μL at a dosage of 0.1 or 1.0 μg/kg in PBS once a day from 6 through 11 days after the first immunization. The control group received physiological saline on the same days. Each group comprised 6 to 10 animals. On the 12th, 16th and 20th days after the first immunization, the animals were then placed in a hermetic box, in which an aerosol of 1% ovalbumin solution (OvA) in PBS was generated with an ultrasonic nebulizer LD-207U (Little Doctor) for 1 minute with continuous mixing of air. The duration of exposure of the animals to the aerosol was 15 minutes. Analysis of the severity of experimental allergic asthma was carried out 24 hours after the last aerosol exposure.
The mice were killed by intra-abdominal administration of a lethal dose of sodium barbital. Bronchoalveolar lavage (BAL) was obtained by washing the lungs through the trachea with 1 mL PBS solution. The BAL cells were precipitated by centrifuging, the precipitate was resuspended, the cell concentration was counted in a Goryaev chamber, and smears were prepared. The smears were dried, fixed and stained with Romanovskii dye. The cytological composition of the bronchoalveolar lavage was investigated under a light microscope with oil immersion (eyepiece×16, objective×100). The numbers of monocyte/macrophages, neutrophils, eosinophils and lymphocytes per 200 cells were counted, in which no less than 5 visual fields were viewed. The relative number of cells of each cell population was expressed as the percentage of the total number of cells.
The statistical processing of the results was carried out with the Microsoft Excel and SPSS programs for Windows v.13. The normality of the distribution was determined with the Kholmogorov-Smimov criterion. To evaluate the significance of the differences between groups for normally distributed values, we used the two-sided Student test with unequal deviations, for non-normally distributed differences—the Mann-Whitney test. The differences were considered significant at p<0.05. Unless otherwise stated, the data are presented in the form of means±standard deviation.

[2] = system: thymocyte and lymphocyte proliferation; conditions: cited from earlier work
[3] = system: RBCs and protein in the BAL; assay: Lung injury / microvascular permeability: RBCs and total protein in BAL, guinea pig model; type: in vivo, Dunkin-Hartley guinea pigs
Experimental: Animals were sensitized on day 0 ip with 50 mg/kg OVA. On Days 17, 18, 19, and 20, animals received an ip injection between 8 and 10 am with PBS, SCV-07 at 1 ug/kg, or SCV-07 at 10 ug/kg (Peptide treatment). Between 8 and 10 a.m. on Day 21, animals were administered peptide 2 hours before OVA or saline (NSS) aerosol challenge. 30 min before OVA or NSS aerosol challenge each animal was injected ip with an antihistamine (6.1 mg/kg pyrilamine maleate) to prevent death due to the anaphylactic response that accompanies aerosol OVA challenge. Animals were exposed to aerosol in pairs with either 1% OVA solution or NSS for 5 min in a plexiglass chamber (22×22×29 cm) using a DeVilbiss Model 35B Ultrasonic Nebulizer. Animals were observed during the total 5 min aerosolization and comments recorded. Within 22-24 hours after challenge, animals were euthanized, bled by cardiac puncture, lavaged and lung lobes removed for measurement of cellular infiltration. At the time of OVA or NSS challenge and euthanasia, animal weights ranged from approximately 350-550 g, with the average weight approximately 420 g. This experimental protocol is similar to that used in previously published studies (Regal and Fraser, 1996; Regal et al., 2000). […] Total white blood cells in BAL were counted by standard methods in a hemacytometer using Turk's solution. […] Four hundred cells were counted and identified as eosinophils, neutrophils, or mononuclear cells. […] EPO activity from the homogenized lung after lavage was expressed as total OD/min from the left caudal lobe. MPO activity from the homogenized lung after lavage was expressed as total units of enzyme activity from the right caudal lobe. […] OD412 of the BAL supernatant was also determined to estimate the number of RBCS that were lysed during the lavage procedure and prior to re-suspension of the cells for counting. […] Lung injury and/or changes in microvascular permeability were assessed by determining the RBCs in the BAL (FIG. 7A-B) as well as the overall protein content of the BAL fluid (FIG. 7C). […]

In the case of N[C@H](CCC(=O)N[C@@H](Cc1c[nH]c2ccccc12)C(=O)O)C(=O)O [SCV-07, γ-D-glutamyl-L-tryptophan], the “Total cellularity of the BAL” value ([1]; SCV-07 0.1 μg/kg intra-abdominally) is reported as 1.96±0.99 million, the “Total cellularity of the BAL” value ([1]; SCV-07 1 μg/kg) is reported as 2.21±1.16 million and the “Eosinophils, % of BAL cells” value ([1]; 0.1 μg/kg) is reported as 57.4 ± 21.3%. For the same compound, the “Lymphocytes, % of BAL cells” value ([1]; 0.1 μg/kg) was 0.4 ± 0.5%, the “Monocytes/Macrophages, % of BAL cells” value ([1]; 0.1 μg/kg) was 41.2 ± 20.7% and the “Neutrophils, % of BAL cells” value ([1]; 0.1 μg/kg) was 0.9 ± 0.8%. The “Eosinophils, % of BAL cells” value ([1]; 1 μg/kg) was 56.7 ± 9.5 %, the “Lymphocytes, % of BAL cells” value ([1]; 1 μg/kg) was 0.6 ± 0.7% and the “Monocytes/Macrophages, % of BAL cells” value ([1]; 1 μg/kg) was 40.6 ± 9.4 %. The “Neutrophils, % of BAL cells” value ([1]; 1 μg/kg) was 2.1 ± 0.9%, the “Eosinophils in BAL, thousand” value ([1]; 0.1 μg/kg) was 456 ± 144 thousand and the “Lymphocytes in BAL, thousand” value ([1]; 0.1 μg/kg) was 22 ± 11 thousand. For the same compound, the “Monocytes/Macrophages in BAL, thousand” value ([1]; 0.1 μg/kg) was 629 ± 134 thousand, the “Neutrophils in BAL, thousand” value ([1]; 0.1 μg/kg) was 17 ± 14 thousand and the “Total number of cells in the lavages” value ([1]; 0.1 μg/kg, p<0.05 vs control) was 1.12±0.15 million. The “Eosinophils in BAL, thousand” value ([1]; 1 μg/kg) was 690 ± 247 thousand, the “Lymphocytes in BAL, thousand” value ([1]; 1 μg/kg) was 26 ± 9 thousand and the “Monocytes/Macrophages in BAL, thousand” value ([1]; 1 μg/kg) was 586 ± 144 thousand. The “Neutrophils in BAL, thousand” value ([1]; 1 μg/kg) was 18 ± 10 thousand, the “Total number of cells in the lavages” value ([1]; 1 μg/kg) was 1.32±0.23 million and the “Con-A-induced thymocyte and lymphocyte proliferation” value [2] was “increases”. The “OD412 of the BAL supernatant” value ([3]; change from NSS to OVA) was “significantly reduced”, the “Number of RBCs in the BAL (OD412 of lysed cell pellet), change from NSS to OVA” value ([3]; either 1 or 10 ug/kg) was “significantly attenuated” and the “Total protein in the BAL fluid” value ([3]; guinea pig, in vivo) was “not affected”.
